Several values for one entry are separate records, joined by “and”; a condition that tells them apart may be missing. Identical values can stand only once.
Experiment: xn = mol fraction of the nth substance listed

O=S(=O)([O-])[O-].[Li+].[Li+] + O
Settings | viscosity
293.15 K, 101 kPa, x1 = 0.007256 | 1.26 mPa·s
293.15 K, 101 kPa, x1 = 0.01412 | 1.55 mPa·s
293.15 K, 101 kPa, x1 = 0.02103 | 1.89 mPa·s
293.15 K, 101 kPa, x1 = 0.02766 | 2.31 mPa·s
293.15 K, 101 kPa, x1 = 0.03404 | 2.82 mPa·s
293.15 K, 101 kPa, x1 = 0.04479 | 4.02 mPa·s
293.15 K, 101 kPa, x1 = 0.05103 | 5.05 mPa·s
293.15 K, 101 kPa, x1 = 0.05234 | 5.28 mPa·s
293.15 K, 101 kPa, x1 = 0.05329 | 5.47 mPa·s
293.15 K, 101 kPa, x1 = 0.05449 | 5.71 mPa·s
298.15 K, 101 kPa, x1 = 0.007256 | 1.12 mPa·s
298.15 K, 101 kPa, x1 = 0.00868 | 1.152 mPa·s and 1.152 mPa·s
298.15 K, 101 kPa, x1 = 0.01412 | 1.38 mPa·s
298.15 K, 101 kPa, x1 = 0.02103 | 1.69 mPa·s
298.15 K, 101 kPa, x1 = 0.02192 | 1.705 mPa·s and 1.705 mPa·s
298.15 K, 101 kPa, x1 = 0.02766 | 2.05 mPa·s
298.15 K, 101 kPa, x1 = 0.03404 | 2.49 mPa·s
298.15 K, 101 kPa, x1 = 0.03935 | 2.947 mPa·s and 2.947 mPa·s
298.15 K, 101 kPa, x1 = 0.04479 | 3.49 mPa·s
298.15 K, 101 kPa, x1 = 0.05103 | 4.36 mPa·s
298.15 K, 101 kPa, x1 = 0.05234 | 4.57 mPa·s
298.15 K, 101 kPa, x1 = 0.05329 | 4.71 mPa·s
298.15 K, 101 kPa, x1 = 0.05449 | 4.95 mPa·s
298.15 K, 101.33 kPa, x1 = 0.05143 | 2.05 mPa·s
298.15 K, 101.33 kPa, x1 = 0.05627 | 3.659 mPa·s
300.15 K, 101 kPa, x1 = 0.05329 | 4.47 mPa·s
300.15 K, 101 kPa, x1 = 0.05449 | 4.7 mPa·s
303.15 K, 101 kPa, x1 = 0.007256 | 0.99 mPa·s
303.15 K, 101 kPa, x1 = 0.01412 | 1.22 mPa·s
303.15 K, 101 kPa, x1 = 0.02103 | 1.51 mPa·s
303.15 K, 101 kPa, x1 = 0.02766 | 1.82 mPa·s
303.15 K, 101 kPa, x1 = 0.03404 | 2.21 mPa·s
303.15 K, 101 kPa, x1 = 0.04479 | 3.06 mPa·s
303.15 K, 101 kPa, x1 = 0.05103 | 3.81 mPa·s
303.15 K, 101 kPa, x1 = 0.05234 | 3.99 mPa·s
303.15 K, 101 kPa, x1 = 0.05329 | 4.11 mPa·s
303.15 K, 101 kPa, x1 = 0.05449 | 4.3 mPa·s
305.15 K, 101 kPa, x1 = 0.05329 | 3.89 mPa·s
305.15 K, 101 kPa, x1 = 0.05449 | 4.1 mPa·s
308.15 K, 101 kPa, x1 = 0.05103 | 3.33 mPa·s
308.15 K, 101 kPa, x1 = 0.05234 | 3.49 mPa·s
308.15 K, 101 kPa, x1 = 0.05329 | 3.57 mPa·s
310.15 K, 101 kPa, x1 = 0.05329 | 3.39 mPa·s
311.15 K, 101 kPa, x1 = 0.05234 | 3.25 mPa·s
312.15 K, 101 kPa, x1 = 0.05329 | 3.24 mPa·s
313.15 K, 101 kPa, x1 = 0.007256 | 0.8 mPa·s
313.15 K, 101 kPa, x1 = 0.01412 | 0.99 mPa·s
313.15 K, 101 kPa, x1 = 0.02103 | 1.21 mPa·s
313.15 K, 101 kPa, x1 = 0.02766 | 1.49 mPa·s
313.15 K, 101 kPa, x1 = 0.03404 | 1.76 mPa·s
313.15 K, 101 kPa, x1 = 0.04479 | 2.42 mPa·s
313.15 K, 101 kPa, x1 = 0.05103 | 2.96 mPa·s
313.15 K, 101 kPa, x1 = 0.05234 | 3.1 mPa·s
313.15 K, 101 kPa, x1 = 0.05329 | 3.17 mPa·s
314.15 K, 101 kPa, x1 = 0.05329 | 3.11 mPa·s
316.15 K, 101 kPa, x1 = 0.05234 | 2.89 mPa·s
318.15 K, 101 kPa, x1 = 0.05103 | 2.65 mPa·s
318.15 K, 101 kPa, x1 = 0.05234 | 2.77 mPa·s
320.15 K, 101 kPa, x1 = 0.05234 | 2.66 mPa·s
323.15 K, 101 kPa, x1 = 0.00868 | 0.7 mPa·s
323.15 K, 101 kPa, x1 = 0.02192 | 1.014 mPa·s
323.15 K, 101 kPa, x1 = 0.03935 | 1.669 mPa·s
323.15 K, 101 kPa, x1 = 0.05103 | 2.37 mPa·s
323.15 K, 101 kPa, x1 = 0.05234 | 2.52 mPa·s
323.15 K, 101.33 kPa, x1 = 0.05088 | 1.378 mPa·s

ClC(Cl)C(Cl)Cl + C1COCCO1
303.15 K, 101.33 kPa
Settings | viscosity [mPa·s]
x2 = 0.0869 | 1.441
x2 = 0.1835 | 1.419
x2 = 0.2833 | 1.392
x2 = 0.3491 | 1.372
x2 = 0.461 | 1.331
x2 = 0.5705 | 1.287
x2 = 0.6587 | 1.245
x2 = 0.7613 | 1.198
x2 = 0.8189 | 1.169
x2 = 0.908 | 1.128
